From patent publication US20100311581A1, “Azolylmethyloxiranes, use Thereof and Agents Containing the Same” (BASF SE, priority 2007, published 2010)
Read-outs that look alike come from different tables or passages of the source.

Columns and labels:
[1] = system: Septoria tritici; experiment: Activity against Septoria leaf blotch Septoria tritici in the microtiter test (Septtr); assay type: cell-based
[2] = system: Pyriculana oryzae; assay type: cell-based
[3] = system: Phakopsora pachyrhizi; experiment: Curative activity against soya rust caused by Phakopsora pachyrhizi (Phakpa K1), greenhouse; assay type: in vivo; conditions: curative spray on soya seedlings, visual rating after 14 days in greenhouse, untreated 90% attack
[4] = system: Leptosphaeria nodorum; experiment: Activity against glume blotch Leptosphaeria nodorum in the microtiter test (Leptno); assay type: cell-based
[5] = Comparison tests, microtiter test
[6] = microtiter plate, 7th day after inoculation, 405 nm, relative to active compound-free control (100%)
[7] = 31 ppm, microtiter plate, seventh day after inoculation, 405 nm, relative to active compound-free control (=100%)
[8] = Comparison tests, 31 ppm, microtiter test

Structure (SMILES): Fc1ccccc1[C@@]1(Cn2nc[nH]c2=S)O[C@@H]1c1ccccc1Cl
- Growth in % at 31 ppm with Septtr [1, 5]: 58%

Structure (SMILES): Fc1cccc([C@@]2(Cn3nc[nH]c3=S)O[C@@H]2c2ccccc2Cl)c1 (relative stereo) [Example 1, 1-[rel-(2S,3R)-3-(2-chlorophenyl)-2-(3-fluorophenyl)oxiran-2-ylmethyl]-1H-1,2,4-triazole-5(4H)-thione]
- Growth in % at 31 ppm with Septtr [1, 5]: 21%
- Growth in % at 31 ppm with Septtr [1, 6]: 21%

Structure (SMILES): Cc1ccccc1[C@H]1O[C@]1(Cn1nc[nH]c1=S)c1cccc(F)c1 (relative stereo) [Example 3, 1-[rel-(2S,3R)-2-(3-fluorophenyl)-3-o-tolyloxiran-2-ylmethyl]-1H-1,2,4-triazole-5(4H)-thione]
- Growth in % at 31 ppm with Septtr [1, 6]: 11%

Structure (SMILES): CSc1ncnn1C[C@]1(c2cccc(F)c2)O[C@@H]1c1ccccc1F (relative stereo) [Example 4, 1-[rel-(2S,3R)-3-(2-fluorophenyl)-2-(3-fluorophenyl)oxiran-2-ylmethyl]-5-(methylthio)-1H-1,2,4-triazole]
- Growth in % at 31 ppm with Pyrior [2, 7]: 0%
- Growth in % at 31 ppm with Pyrior [2, 8]: 0%

Structure (SMILES): CSc1ncnn1C[C@]1(c2cccc(F)c2)O[C@@H]1c1ccccc1C (relative stereo) [Example 5, 1-rel-[(2S,3R)-2-(3-fluorophenyl)-3-o-tolyloxiran-2-ylmethyl]-5-(methylthio)-1H-1,2,4-triazole]
- Growth in % at 31 ppm with Pyrior [2, 7]: 0%

Structure (SMILES): CSc1ncnn1C[C@]1(c2cccc(F)c2)O[C@@H]1c1ccccc1Cl (relative stereo) [Example 6, 1-[rel-(2S,3R)-3-(2-chlorophenyl)-2-(3-fluorophenyl)oxiran-2-ylmethyl]-5-(methylthio)-1H-1,2,4-triazole]
- Attack in % at 600 ppm with Phakpa K1 [3]: 0%

Structure (SMILES): N#CSc1ncnn1C[C@]1(c2cccc(F)c2)O[C@@H]1c1ccccc1Cl (relative stereo) [Example 9, 1-[rel-(2S,3R)-3-(2-chlorophenyl)-2-(3-fluorophenyl)oxiran-2-ylmethyl]-5-thiocyanato-1H-1,2,4-triazole]
- Growth in % at 31 ppm with Septtr [1, 6]: 49%

Structure (SMILES): CCOP(=S)(OCC)Sc1ncnn1C[C@]1(c2cccc(F)c2)O[C@@H]1c1ccccc1Cl (relative stereo) [Example 10, S-1-[rel-(2S,3R)-3-(2-chlorophenyl)-2-(3-fluorophenyl)oxiran-2-ylmethyl]-1H-1,2,4-triazole-5-yl O,O-diethyl phosphorodithioate]
- Growth in % at 31 ppm with Pyrior [2]: 0%

Structure (SMILES): COC(=O)Sc1ncnn1C[C@]1(c2cccc(F)c2)O[C@@H]1c1ccccc1Cl (relative stereo) [Example 12, methyl {2-[rel-(2S,3R)-3-(2-chlorophenyl)-2-(3-fluorophenyl)-oxiranylmethyl]-2H-[1,2,4]triazole-3-yl}thiocarbonate]
- Growth in % at 31 ppm with Septtr [1, 5]: 25%
- Growth in % at 31 ppm with Leptno [4, 5]: 0%
- Growth in % at 31 ppm with Leptno ([4]; microtiter plate, 7th day after inoculation, 405 nm, relative to active compound-free control): 0%

Structure (SMILES): CSc1ncnn1C[C@]1(c2ccc(F)cc2)O[C@@H]1c1ccccc1F [WO9638440, p. 17 (4th compound),]
- Growth in % at 31 ppm with Pyrior [2, 8]: 100%

Structure (SMILES): COC(=O)Sc1ncnn1CC1(c2ccc(F)cc2)OC1c1ccccc1Cl (stereo not shown) [WO9742178, p. 55 (4th compound)]
- Growth in % at 31 ppm with Septtr [1, 5]: 100%
- Growth in % at 31 ppm with Leptno [4, 5]: 100%
